Test results from PMC6667648 (Frontiers in Microbiology, 2019).
Converted amounts (≈) assume the structure as drawn. Where a SMILES comes first, the peptide text is derived from it. Bridges are numbered along the chain shown (N, C = ends).

Assays:
[1] = test system: murine L929 fibroblast cells; assay: Fibroblast cytotoxicity, bioluminescence; assay type: cell-based; conditions: 64 μg/mL (maximum concentration evaluated), 24 h incubation
Method: Non-invasive real-time evaluation of viability, mammalian, and bacterial cells, was performed using bioluminescent human keratinocytes (HaCaT, AddexBio, San Diego, CA) and murine L929 fibroblast cells (ATCC, Manassas, VA). The bioluminescent variants were constructed by transfection with a luciferase gene (RediFect Red-Fluc-Puromycin, Catalog #CL596002) (Hamblin et al., [2003]). […] Each concentration was performed in triplicate. Bioluminescence imaging was performed at pre-specified times (0, 15, and 30 min and 1, 3, 5, 8, and 24 h) and compared to concurrently run vehicle-controls. The 96-well plate was positioned on the stage (12.5-cm field of view) within the in vivo Imaging System (IVIS) imaging system (Caliper Life Sciences, Inc., Hopkinton, MA, USA), with an open emission filter, binning of 4, and f-stop 1, and a 1-min exposure time. The resultant photons emitted from the live cells were quantified using Living Image® software (version 4.3, Caliper Life Sciences, Inc.). Monitoring bioluminescence allows assessment of the kinetics of cellular viability as there is a tight correlation between photon count imaging and viable counts (Kadurugamuwa et al., [2003]).

[2] = rat plasma, 40 and 750 ng/mL, storage at −80°C, thaw at ambient temperature min 1 h, six replicates, LC-MS/MS
[3] = test system: 6 hr MRSA ATCC 1556 biofilm; assay type: cell-based, Staphylococcus aureus; conditions: preformed (6 h) MRSA biofilm, 16 h treatment, CFU count, three technical replicates
[4] = statement in discussion
C. albicans Y-6359 = assay type: cell-based; conditions: 24-h incubation, mean of 3 replicates from 2 independent experiments
Method: (§1) Strains were obtained from American Type Culture Collection (ATCC, Manassas, VA) or the clinical isolate collection at Trideum Biosciences (Frederick, MD, USA). Bioluminescence strains of P. aeruginosa 19660, transfected with the Xen5 luciferase gene, and S. aureus ATCC® 49525™ (Wright), transfected with the Xen36 luciferase gene, were obtained from Perkin Elmer (Hopkinton, MA).
(§2) A single colony was aseptically picked from an agar overlay and released in 25–30 mL of pre-warmed trypticase soy broth in a culture flask. Each culture was incubated overnight in a 37°C incubator. […] Pathogen growth was measured by absorbance at 600 nm. Four replicas were included for each test agent concentration. […]

C. albicans Y-326 = assay type: cell-based; conditions: 24-h incubation, mean of 3 replicates from 2 independent experiments
Method: as §1, §2

A. baumannii 6043 = assay: microbe, parasite or virus in culture; assay type: cell-based, Acinetobacter baumannii; conditions: A. baumannii 6043; 24-h incubation; mean of 3 replicates from 2 independent experiments
Method: as §1, §2

A. baumannii ATCC 17978 = assay: microbe, parasite or virus in culture; assay type: cell-based, Acinetobacter baumannii; conditions: A. baumannii ATCC 17978; 24-h incubation; mean of 3 replicates from 2 independent experiments
Method: as §1, §2

A. baumannii 6838 = assay: microbe, parasite or virus in culture; assay type: cell-based, Acinetobacter baumannii; conditions: 6838, 24 h
Method: as §1, §2

[5] = test system: methicillin-resistant S. epidermidis biofilm; assay type: cell-based
Method: (§3) Biofilms (methicillin-resistant S. epidermidis, MRSE ATCC 51625 and multidrug resistant S. epidermidis MDR-SE ATCC 700578) were established following inoculation of 10^5 CFU/mL in Minimum Essential Media for 6 h or 5 days representing preformed or mature biofilm respectively, in plastic 96-well plates (Costar, Catalog #3595). […] Following test agent incubation, the media (including the planktonic cells) was removed and then the remaining biofilm treated with 50 μL 0.1% Triton X100 followed by agitating the plate on a rocker for 30 min. The biofilm was then disrupted with a 96 well replicator, the resultant mixture vortexed, samples serially diluted, plated on agar plates, and incubated overnight and CFUs subsequently counted. Three technical replicates were performed for each condition tested.

[6] = test system: MDR S. epidermidis ATCC 700578 biofilm; assay type: cell-based; conditions: CFU count
Method: as §3

C. parapsilosis Y-1761 = assay: microbe, parasite or virus in culture; assay type: cell-based; conditions: 24-h incubation, mean of 3 replicates from 2 independent experiments
Method: as §1, §2

C. parapsilosis Y-1763 = assay: microbe, parasite or virus in culture; assay type: cell-based; conditions: 24-h incubation, mean of 3 replicates from 2 independent experiments
Method: as §1, §2

E. cloacae 6054 = assay: microbe, parasite or virus in culture; assay type: cell-based; conditions: 6054, 24 h
Method: as §1, §2

E. cloacae 6053 = assay: microbe, parasite or virus in culture; assay type: cell-based; conditions: 6053, 24 h
Method: as §1, §2

S. aureus ATCC 29213 = assay: microbe, parasite or virus in culture; conditions: S. aureus ATCC 29213, serial passaging at sub-MIC, duplicate
Text: The development of resistance was confirmed if the microorganism started growing at continuously higher concentrations. […] Evaluations were done in duplicate.

P. aeruginosa 6186 = assay: microbe, parasite or virus in culture; assay type: cell-based, Pseudomonas aeruginosa; conditions: 6186, 24 h
Method: as §1, §2

P. aeruginosa ATCC 27853 = assay: microbe, parasite or virus in culture; assay type: cell-based, Pseudomonas aeruginosa; conditions: P. aeruginosa ATCC 27853; 24-h incubation; mean of 3 replicates from 2 independent experiments
Method: as §1, §2

P. aeruginosa ATCC 19660 = assay: microbe, parasite or virus in culture; assay type: cell-based, Pseudomonas aeruginosa; conditions: P. aeruginosa ATCC 19660; 24-h incubation; mean of 3 replicates from 2 independent experiments
Method: as §1, §2

S. epidermis ATCC 51625 = assay: microbe, parasite or virus in culture; assay type: cell-based, S. epidermidis; conditions: ATCC 51625, 24 h
Method: as §1, §2

[7] = pooled normal human serum, 200 μg/mL, 72 h, 37°C, LC-MS/MS, triplicate
human red blood cells = assay: Human hemolysis assay; assay type: cell-based; conditions: 30 min, 37°C, absorbance 540 nm, duplicate
Method: […]. Distilled water was used as a control for 100% hemolysis with the background level of absorbance being water only (Stasiuk et al., [2004]). The percent hemolysis was calculated as (test wellAbs – backgroundAbs) / (100% lysisAbs – backgroundAbs). Experiments were run in duplicate.

K. pneumonia 6066 = assay: microbe, parasite or virus in culture; assay type: cell-based, Klebsiella pneumoniae; conditions: 24 h
Method: as §1, §2

K. pneumonia 6069 = assay: microbe, parasite or virus in culture; assay type: cell-based, Klebsiella pneumoniae; conditions: 24 h
Method: as §1, §2

SMILES: CC[C@H](C)[C@@H]1NC(=O)CNC(=O)[C@H](CCCCN)NC(=O)[C@H](Cc2ccc(O)cc2)NC(=O)[C@@H]2CSSC[C@H](NC1=O)C(=O)N[C@@H](Cc1ccccc1)C(=O)N[C@@H](CCCCN)C(=O)N[C@@H](CCCCN)C(=O)N[C@H](C(=O)N[C@@H](CCCCN)C(N)=O)CSSC[C@H](NC(=O)[C@H](Cc1ccccc1)NC(=O)[C@@H](N)CCCNC(=N)N)C(=O)N[C@@H](Cc1c[nH]c3ccccc13)C(=O)N[C@@H](CCCCN)C(=O)N[C@@H](C(C)C)C(=O)N2 [RP557] (H-RFCWKVCYKGICFKKCK-NH2; disulfide 3-16, 7-12)
- Fibroblast cell killing [1]: limited fibroblast cell killing
- Degradation after three freeze-thaw cycles [2]: did not show signs of degradation
- EC90, biofilm CFU [3]: 6 µg/mL (≈ 2.81 µM)
- Water solubility [4]: water-soluble
- Minimum Inhibitory Concentration (MIC) (C. albicans Y-6359): 2.0 [4] μM
- Minimum Inhibitory Concentration (MIC) (C. albicans Y-326): 8.0 [16] μM
- Minimum Inhibitory Concentration (MIC) (A. baumannii 6043): 4.0 [8] μM
- Minimum Inhibitory Concentration (MIC) (A. baumannii ATCC 17978): 8.0 [16] μM
- Minimum Inhibitory Concentration (MIC) (A. baumannii 6838): 4.0 [8] μM
- EC90, biofilm [5]: 8 µg/mL (≈ 3.75 µM)
- EC90, biofilm [6]: 8 µg/mL (≈ 3.75 µM)
- Minimum Inhibitory Concentration (MIC) (C. parapsilosis Y-1761): 8.0 [16] μM
- Minimum Inhibitory Concentration (MIC) (C. parapsilosis Y-1763): 1.0 [2] μM
- Minimum Inhibitory Concentration (MIC) (E. cloacae 6054): 4.0 [8] μM
- Minimum Inhibitory Concentration (MIC) (E. cloacae 6053): 4.0 [8] μM
- MIC on Passage #0 and Passage #1 (S. aureus ATCC 29213): 2 µg/mL (≈ 0.936 µM)
- MIC on Passage #30 (S. aureus ATCC 29213): 32 µg/mL (≈ 15 µM)
- Minimum Inhibitory Concentration (MIC) (P. aeruginosa 6186): 2.0 [4] μM
- Minimum Inhibitory Concentration (MIC) (P. aeruginosa ATCC 27853): 2.0 [4] μM
- Minimum Inhibitory Concentration (MIC) (P. aeruginosa ATCC 19660): 2.0 [4] μM
- Minimum Inhibitory Concentration (MIC) (S. epidermis ATCC 51625): 4.0 [8] μM
- Degradation in human serum [7]: did not degrade
- Minimum hemolytic concentration required to cause 10% hemolysis, MHC (human red blood cells): 128 µg/mL
- Minimum Inhibitory Concentration (MIC) (K. pneumonia 6066): 4.0 [8] μM
- Minimum Inhibitory Concentration (MIC) (K. pneumonia 6069): 2.0 [4] μM
